Reference: patent US12163953B2, “P-phenylene ethynylene compounds as bioactive and detection agents” (STC.UNM, priority 2014, dated 2024)
Where a name gives a salt, the structure may show the parent alone. Read-outs that look alike come from different tables or passages of the source.

Columns and labels:
[1] = biological target: T1, HEWL fibrils incubated for different lengths of time (Gallus gallus, UniProt P00698); test: Fluorescence enhancement of dyes versus HEWL incubation time; format: binding, hen
T1 construct: Lyophilized HEWL was dissolved at 10 mg/mL in 10 mM pH 3 sodium citrate buffer with 0.1 M NaCl; purchased Sigma-Aldrich; host or cells: hen egg white; fibrillised in house (pH 3, 70 °C, stirred)
Experimental: Hen egg white lysozyme (HEWL) was used to form fibrillary amyloid aggregates for use in this study. […] For these experiments. HEWL (Sigma-Aldrich) was incubated at 70′C and a concentration of 350 μM in pH 3 sodium citrate buffer (10 mM) with 100 mM NaCl.
A plot of normalized fluorescence enhancement for all four PEs and Thioflavin T with HEWL fibrils incubated for different lengths of time is shown in FIG. 15. PE1+ and PE2+ track amyloid formation in roughly the same way as ThT, showing a sigmoidal curve with onset of a logarithmic growth phase occurring at the same time, around 1 hour of incubation. The plateau phase, as monitored by fluorescence of any of those three PEs or ThT, appeared at 2 hours incubation.
(§1) For studies of fluorescence enhancement vs. protein incubation time, dyes were mixed with protein sample in phosphate buffer (10 mM, pH 7.4) at equal monomer concentration of 10 μM in the wells of a standard 96-well plate. Emission spectra were obtained using top read with a SpectraMax M2e plate-reading spectrophotometer (Molecular Devices, Sunnyvale, CA). Experiments were performed in duplicate and errors are reported as standard deviation. For analysis of bound PE excitation and emission spectra and protein-PE energy transfer, PEs (500 nM) were mixed with protein sample (5 μM, monomer basis) in phosphate buffer and the solution transferred to a quartz, fluorometry cuvette. Spectra were obtained on a PTI QuantaMaster 40 steady state spectrofluorometer (HORIBA Scientific, Edison, NJ).

[2] = test system: B. atrophaeus vegetative cells; format: cell-based, Bacillus atrophaeus; conditions: 10 μg/mL
[3] = test system: B. atrophaeus spores; format: cell-based, Bacillus atrophaeus
[4] = test system: B. anthracis Sterne spores; format: cell-based, Bacillus anthracis Sterne; conditions: within 90 minutes
[5] = test system: B. anthracis Sterne vegetative cells; format: cell-based, Bacillus anthracis Sterne; conditions: 10 μg/mL, light-activated PE
[6] = Absorbance and fluorescence of −1C with AChE inhibitors without LaCh (aggregation control); format: physicochemical; conditions: 5 uM −1C with 5 ug/mL inhibitor, no LaCh
Experimental: As shown in FIGS. 12A-C, it is clear that inhibition of AChE by several different inhibitors is apparent in the attenuated loss of fluorescence compared with the reference solution, with no inhibitor. […] FIGS. 13A-B illustrate (A) absorbance and (B) fluorescence (Ex: 370 nm) of 5 uM −1C with 5 ug/mL of either LaCh or one of the three AChE Inhibitors used in this study. […] Further, there is little overlap between the fluorescence of the TAE-1/IPE complex and that of the PE/LaCh complex.

[7] = biological target: T2, HEWL monomers (Gallus gallus, UniProt P00698); test: Fluorescence interaction of PEs with HEWL monomers; format: binding, hen; conditions: HEWL monomers 5 μM/0.25 mg/mL
T2 construct: Hen egg white lysozyme and Thioflavin T were obtained from Sigma-Aldrich Chemical Company; purchased Sigma-Aldrich; host or cells: hen egg white
Experimental: Excitation and emission spectra of PEs in phosphate buffer alone, with monomeric HEWL and with HEWL amyloids (8 h incubated) are shown in FIGS. 18A-H, and relevant photophysical properties are summarized in Table 1. FIGS. 18A-H illustrate excitation (A, B, C, D) and emission (right; E, F, G. H) spectra of PEs (A, E: PE1+; B, F: PE1−; C, G: PE2+; D, H: PE3+) in phosphate buffer (PB, pH 7.4, 10 mM) alone (long dashed line) with HEWL monomers (short dashed line) and with HEWL amyloids (solid line); PE concentration: 500 nM, protein concentration: 5 μM monomer basis/0.25 mg/mL; emission and excitation wavelengths, respectively, were chosen as shown in Table 1 for each sample. […] Absorbance spectra were taken, but background light scattering from insoluble amyloid aggregates made them difficult to interpret, so “fluorescence detected absorbance” in the form of excitation spectra was used instead. […]
[formula] where x is PE concentration (with protein concentration fixed), y is PE fluorescence intensity. […] Fits to the data for the three cationic PEs produced Fmax values close to the observed saturation value, and the other two parameters are reported as calculated. […]
For studies of fluorescence enhancement vs. protein incubation time, dyes were mixed with protein sample in phosphate buffer (10 mM, pH 7.4) at equal monomer concentration of 10 μM in the wells of a standard 96-well plate. […]

[8] = biological target: T3, HEWL amyloids (Gallus gallus, UniProt P00698); test: Excitation and emission spectra of PEs with HEWL amyloids; format: binding, hen; conditions: PE 500 nM, HEWL amyloid 5 μM monomer basis
T3 construct: Lyophilized HEWL was dissolved at 10 mg/mL in 10 mM pH 3 sodium citrate buffer with 0.1 M NaCl; purchased Sigma-Aldrich; host or cells: hen egg white; fibrillised in house (pH 3, 70 °C, stirred)
Experimental: Excitation and emission spectra of PEs in phosphate buffer alone, with monomeric HEWL and with HEWL amyloids (8 h incubated) are shown in FIGS. 18A-H, and relevant photophysical properties are summarized in Table 1. FIGS. 18A-H illustrate excitation (A, B, C, D) and emission (right; E, F, G. H) spectra of PEs (A, E: PE1+; B, F: PE1−; C, G: PE2+; D, H: PE3+) in phosphate buffer (PB, pH 7.4, 10 mM) alone (long dashed line) with HEWL monomers (short dashed line) and with HEWL amyloids (solid line); PE concentration: 500 nM, protein concentration: 5 μM monomer basis/0.25 mg/mL; emission and excitation wavelengths, respectively, were chosen as shown in Table 1 for each sample. A 10:1 molar ratio of protein to PE was used for these experiments. Absorbance spectra were taken, but background light scattering from insoluble amyloid aggregates made them difficult to interpret, so “fluorescence detected absorbance” in the form of excitation spectra was used instead. Normalized excitation and emission spectra, in which peak shifts and lineshape changes of spectra were somewhat easier to visualize, were used. […] PE1+ (FIG. 18E) had no change in wavelength or lineshape of emission spectrum, just a large increase in intensity when mixed with amyloids. The excitation spectra (FIGS. 18A, B, C, D) show a notable bathochromic shift for each PE in solution mixed with amyloid, of 23, 27, 35 and 29 nm for PE1+, PE2+, PE3+ and PE1−, respectively, observing only the low-energy band. The high-energy band, less relevant for imaging purposes, was also bathochromically shifted. […] PE1− had similar excitation spectrum (FIG. 18B) with monomer and amyloid, except for a large intensity difference.
Lyophilized HEWL was dissolved at 10 mg/mL in 10 mM pH 3 sodium citrate buffer with 0.1 M NaCl. The solution was incubated in a 70C oil bath and magnetically stirred at 250 rpm for 12 h, and aliquots were withdrawn at half-hour intervals. […] Half of each aliquot was immediately diluted into pH 7.4 phosphate buffer to prevent further influence of acidic conditions and stored at 4C.
as §1

[9] = Photophysical properties of PEs alone (excitation/emission spectra, fluorescence yield); format: physicochemical
Experimental: Excitation and emission spectra of PEs in phosphate buffer alone, with monomeric HEWL and with HEWL amyloids (8 h incubated) are shown in FIGS. 18A-H, and relevant photophysical properties are summarized in Table 1. FIGS. 18A-H illustrate excitation (A, B, C, D) and emission (right; E, F, G. H) spectra of PEs (A, E: PE1+; B, F: PE1−; C, G: PE2+; D, H: […]) alone (long dashed line) with HEWL monomers (short dashed line) and with HEWL amyloids (solid line); PE concentration: 500 nM, protein concentration: 5 μM monomer basis/0.25 mg/mL; emission and excitation wavelengths, respectively, were chosen as shown in Table 1 for each sample. A 10:1 molar ratio of protein to PE was used for these experiments. Absorbance spectra were taken, but background light scattering from insoluble amyloid aggregates made them difficult to interpret, so “fluorescence detected absorbance” in the form of excitation spectra was used instead. Normalized excitation and emission spectra, in which peak shifts and lineshape changes of spectra were somewhat easier to visualize, were used. […] PE1+ (FIG. 18E) had no change in wavelength or lineshape of emission spectrum, just a large increase in intensity when mixed with amyloids. The excitation spectra (FIGS. 18A, B, C, D) show a notable bathochromic shift for each PE in solution mixed with amyloid, of 23, 27, 35 and 29 nm for PE1+, PE2+, PE3+ and PE1−, respectively, observing only the low-energy band. The high-energy band, less relevant for imaging purposes, was also bathochromically shifted. […] PE1− had similar excitation spectrum (FIG. 18B) with monomer and amyloid, except for a large intensity difference.
as §1

[10] = Absorbance/fluorescence spectroscopy and fluorescence quantum yield (comparative method) of PEs and PE/substrate aggregates; format: physicochemical
[11] = biological target: T4, HEWL amyloid fibrils (Gallus gallus, UniProt P00698); test: Induced circular dichroism of PE-amyloid complexes; format: binding, hen; conditions: PEs 10 μM, HEWL 10 μM monomer basis
T4 construct: Lyophilized HEWL was dissolved at 10 mg/mL in 10 mM pH 3 sodium citrate buffer with 0.1 M NaCl; purchased Sigma-Aldrich; host or cells: hen egg white; fibrillised in house (pH 3, 70 °C, stirred)
Experimental: Circular dichroism measurements were performed to determine if the intrinsic chirality of the HEWL fibrils was transferred to the PE chromophore by a chiral backbone twist or an “excitonic” chiral supramolecular aggregate. CD spectroscopy (CPEs in PB with HEWL monomer and with HEWL amyloid; performed for (a): PE1+; (b): PE1−; (c): PE2+; (d): PE3+; PEs 10 μM, HEWL 10 μM monomer basis/0.5 mg/mL) indicated induced circular dichroism of PEs when bound to HEWL amyloids. As expected, no PE had optical activity by itself in phosphate buffer solution and none of the PEs had any CD with HEWL monomer, including PE1−. […] PE2+ and PE3+ gave rise to similar CD spectra, with more intense bands in the spectrum for PE3+.
PEs and protein samples were diluted in phosphate buffer, gently vortexed, and read in a 1 mm pathlength quartz CD cuvette using an Aviv 410 CD spectrometer (Aviv Biomedical, Lakewood, NJ), 15 s averaging time. A blank spectrum (PB only) was subtracted from each sample to remove background activity. Error bars are standard deviation over multiple reads of a single sample as reported by the instrument.

[12] = phosphate buffer pH 7.4, 10 mM, PE 500 nM

T3 sequence (P00698 19-147): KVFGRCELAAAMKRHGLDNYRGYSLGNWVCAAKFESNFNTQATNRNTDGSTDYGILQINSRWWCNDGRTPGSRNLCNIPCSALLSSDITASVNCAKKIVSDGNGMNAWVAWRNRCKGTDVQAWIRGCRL
T1 sequence (P00698 19-147): as above
T4 sequence (P00698 19-147): as above
T2 sequence (P00698 19-147): as above

Cc1ccc2c(c1)sc(-c1ccc(N(C)C)cc1)[n+]2C.[Cl-] [ThT, Thioflavin T, reference compound]
HEWL incubation time at which the plateau phase of fluorescence enhancement appears ([1]; dye 10 μM, HEWL 10 μM monomer basis): 2 h

C[N+](C)(C)CCOc1ccc(C#CC2=CC=C(C#Cc3ccc(OCC[N+](C)(C)C)cc3)C2)cc1.I [EO-PE (Th,C2)]
cell death ([2]; 1 hour, light-activated (UVA)): 99% | uptake of PI relative to untreated cells ([2]; 1 hr, dark): increased tenfold | cells killed ([2]; 1 hr, in the absence of light): 73% | effect of increasing PE concentration on death or germination of spores [3]: no increased effect | spores in which the water influx event progressed to stain uptake matching vegetative cells (germination) [3]: 39% | spores still fluorescing like untreated spores (S gate) [3]: 61% | spores that successfully germinate [3]: 15% | killing of spores ([4]; 20 ng PE/spore, light-activated PE): 99% | spores induced to germinate ([4]; absence of UVA light): 81% | spores not killed that germinate into viable colony-forming vegetative cells (of all spores) ([4]; absence of UVA light): 72% | log reduction of vegetative cells ([5]; within 30 minutes): ~4 log | log reduction of vegetative cells ([5]; within 90 minutes): 5 log

CCC1(c2cccc(O)c2)CCCCN(C)C1.Cl (stereo not shown) [Meptazinol, 3-(3-ethylhexahydro-1-methyl-1H-azepin-3-yl)-phenol hydrochloride]
aggregation induced with −1C [6]: no significant aggregation

CCOC(=O)c1ccc(C#Cc2cc(OCCS(=O)(=O)O)c(C#Cc3ccc(C(=O)OCC)cc3)cc2OCCS(=O)(=O)O)cc1 [PE1−]
binding to HEWL monomers [7]: linear and non-saturable | fluorescence enhancement with monomeric species versus amyloid ([1]; equimolar concentrations, 10 μM): greater fluorescence enhancement when mixed with monomeric species than with amyloid | bathochromic shift of excitation spectrum, low-energy band, with amyloid [8]: 29 nm | λem (PB w/ HEWL) ([8]; PB): 439 nm | λex (PB w/HEWL), high-energy band ([8]; PB): 327 nm | λex (PB w/HEWL), low-energy band ([8]; PB): 399 nm | λem (H2O) ([9]; H2O): 454 nm | λem (PB) ([9]; phosphate buffer): 454 nm | λex (PB), high-energy band [9, 12]: 314 nm | λex (PB), low-energy band [9, 12]: 370 nm | enhancement of fluorescence quantum yield, LaCh complex versus PE alone ([10]; 5 uM PE with 32 uM LaCh): 66 times | fluorescence quantum yield of aggregate with LaCh ([10]; 5 uM PE with 32 uM LaCh): 0.991 | centre of structured emission upon aggregation with substrate ([10]; +2C with DLPG, −1C with LaCh): 442 nm | fluorescence quantum yield, PE alone ([10]; in water, corrected value of this study): 0.015 | induced circular dichroism with HEWL amyloid [11]: strong induced CD with a negative Cotton effect

COc1ccc(C(=O)NCc2ccc(OCCN(C)C)cc2)cc1OC [Itopride, N-[[4-[2-(Dimethylamino)ethoxy]phenyl]methyl]-3,4-dimethoxy benzamidehydrochloride]
aggregation induced with −1C [6]: no significant aggregation

C[N+](C)(C)CCOC(=O)c1ccc(Oc2nc(Oc3ccc(C(=O)OCC[N+](C)(C)C)cc3)nc(Oc3ccc(C(=O)OCC[N+](C)(C)C)cc3)n2)cc1.[I-].[I-].[I-] [TAE-1]
aggregation induced with −1C [6]: red-shifted absorbance and a strongly red-shifted and broadened green fluorescence
